Test results published in ChEMBL document CHEMBL5365402, “Phytochemical investigation of Asarum sieboldii var. seoulense and the phenotypic profiles of its constituents against a Parkinson's Disease olfactory cell line” (Bioorg Med Chem Lett, 2023).
The source made the active and inactive calls. The calls are words filed in the database; no cut-off is given here.

Columns and labels:
Type in all cases: functional, subcellular
ONS [1] = assay: Anti-parkinson's disease activity in human ONS cells assessed as early endosome marker intensity in outer region of cytoplasm at 5 uM by heat map analysis
ONS [2] = assay: Anti-parkinson's disease activity in human ONS cells assessed as negative mitochondrial marker intensity in cytoplasm at 5 uM by heat map analysis
ONS [3] = assay: Anti-parkinson's disease activity in human ONS cells assessed as early endosome marker intensity in inner region of cytoplasm at 5 uM by heat map analysis
ONS [4] = assay: Anti-parkinson's disease activity in human ONS cells assessed as lysosome marker intensity in inner region of cytoplasm at 5 uM by heat map analysis
ONS [5] = assay: Anti-parkinson's disease activity in human ONS cells assessed as negative mitochondrial marker intensity in outer region of cytoplasm at 5 uM by heat map analysis
ONS [6] = assay: Anti-parkinson's disease activity in human ONS cells assessed as early endosome marker intensity in cytoplasm at 5 uM by heat map analysis
ONS [7] = assay: Anti-parkinson's disease activity in human ONS cells assessed as lysosome marker intensity in cytoplasm at 5 uM by heat map analysis
ONS [8] = assay: Anti-parkinson's disease activity in human ONS cells assessed as negative mitochondrial marker intensity in inner region of cytoplasm at 5 uM by heat map analysis
ONS [9] = assay: Anti-parkinson's disease activity in human ONS cells assessed as lysosome marker intensity in outer region of cytoplasm at 5 uM by heat map analysis
ONS [10] = assay: Anti-parkinson's disease activity in human ONS cells assessed as alpha-tubulin marker intensity in inner region of cytoplasm at 5 uM by heat map analysis
ONS [11] = assay: Anti-parkinson's disease activity in human ONS cells assessed as alpha-tubulin marker intensity in outer region of cytoplasm at 5 uM by heat map analysis
ONS [12] = assay: Anti-parkinson's disease activity in human ONS cells assessed as alpha-tubulin marker intensity in cytoplasm at 5 uM by heat map analysis
ONS [13] = assay: Anti-parkinson's disease activity in human ONS cells assessed as LC3B marker intensity in inner region of cytoplasm at 5 uM by heat map analysis
ONS [14] = assay: Anti-parkinson's disease activity in human ONS cells assessed as LC3B marker intensity in cytoplasm at 5 uM by heat map analysis
ONS [15] = assay: Anti-parkinson's disease activity in human ONS cells assessed as LC3B marker intensity in outer region of cytoplasm at 5 uM by heat map analysis

## c1cc2c(cc1[C@H]1OC[C@H]3[C@@H]1CO[C@@H]3c1ccc3c(c1)OCO3)OCO2
ONS [1]
  Activity: inactive
ONS [2]
  Activity: inactive
ONS [3]
  Activity: inactive
ONS [4]
  Activity: inactive
ONS [5]
  Activity: inactive
ONS [6]
  Activity: inactive
ONS [7]
  Activity: inactive
ONS [8]
  Activity: inactive
ONS [9]
  Activity: inactive

## COc1cc(C(=O)O)ccc1O
ONS [10]
  Activity: Active
ONS [1]
  Activity: Active
ONS [3]
  Activity: Active
ONS [4]
  Activity: Active
ONS [11]
  Activity: Active
ONS [6]
  Activity: Active
ONS [7]
  Activity: Active
ONS [12]
  Activity: Active
ONS [9]
  Activity: Active

## CCC(=O)c1cc(OC)c(O)cc1O
ONS [10]
  Activity: Active
ONS [1]
  Activity: Active
ONS [3]
  Activity: Active
ONS [4]
  Activity: Active
ONS [11]
  Activity: Active
ONS [6]
  Activity: Active
ONS [7]
  Activity: Active
ONS [12]
  Activity: Active
ONS [9]
  Activity: Active

## O=C(O)c1ccc(O)cc1
ONS [10]
  Activity: Active
ONS [1]
  Activity: Active
ONS [3]
  Activity: Active
ONS [4]
  Activity: Active
ONS [11]
  Activity: Active
ONS [6]
  Activity: Active
ONS [7]
  Activity: Active
ONS [12]
  Activity: Active
ONS [9]
  Activity: Active

## C/C=C/C=C\CC/C=C/C=C/C(=O)NCC(C)C
ONS [13]
  Activity: Active
ONS [2]
  Activity: Active
ONS [14]
  Activity: Active
ONS [15]
  Activity: Active
ONS [5]
  Activity: Active
ONS [8]
  Activity: Active

## C/C=C\C=C/CC/C=C/C=C/C(=O)NCC(C)C
ONS [10]
  Activity: Active
ONS [1]
  Activity: Active
ONS [3]
  Activity: Active
ONS [4]
  Activity: Active
ONS [11]
  Activity: Active
ONS [6]
  Activity: Active
ONS [7]
  Activity: Active
ONS [12]
  Activity: Active
ONS [9]
  Activity: Active

## C/C=C/C=C/CC/C=C/C=C/C(=O)NCC(C)C
ONS [13]
  Activity: Active
ONS [2]
  Activity: Active
ONS [14]
  Activity: Active
ONS [15]
  Activity: Active
ONS [5]
  Activity: Active
ONS [8]
  Activity: Active

## C/C=C\CC/C=C/C=C/C(=O)NCC(C)C
ONS [10]
  Activity: Active
ONS [1]
  Activity: Active
ONS [3]
  Activity: Active
ONS [4]
  Activity: Active
ONS [11]
  Activity: Active
ONS [6]
  Activity: Active
ONS [7]
  Activity: Active
ONS [12]
  Activity: Active
ONS [9]
  Activity: Active

## COc1cc(/C=C/C(=O)O)ccc1O
ONS [10]
  Activity: Active
ONS [1]
  Activity: Active
ONS [3]
  Activity: Active
ONS [4]
  Activity: Active
ONS [11]
  Activity: Active
ONS [6]
  Activity: Active
ONS [7]
  Activity: Active
ONS [12]
  Activity: Active
ONS [9]
  Activity: Active

## CCC(=O)c1cc2c(cc1OC)OCO2
ONS [1]
  Activity: inactive
ONS [2]
  Activity: inactive
ONS [3]
  Activity: inactive
ONS [4]
  Activity: inactive
ONS [5]
  Activity: inactive
ONS [6]
  Activity: inactive
ONS [7]
  Activity: inactive
ONS [8]
  Activity: inactive
ONS [9]
  Activity: inactive

## CCC(=O)c1ccc2c(c1)OCO2
ONS [10]
  Activity: Active
ONS [1]
  Activity: Active
ONS [3]
  Activity: Active
ONS [4]
  Activity: Active
ONS [11]
  Activity: Active
ONS [6]
  Activity: Active
ONS [7]
  Activity: Active
ONS [12]
  Activity: Active
ONS [9]
  Activity: Active

## COc1cc([C@H]2OC[C@H]3[C@@H]2CO[C@H]3c2ccc3c(c2)OCO3)ccc1O
ONS [1]
  Activity: inactive
ONS [2]
  Activity: inactive
ONS [3]
  Activity: inactive
ONS [4]
  Activity: inactive
ONS [5]
  Activity: inactive
ONS [6]
  Activity: inactive
ONS [7]
  Activity: inactive
ONS [8]
  Activity: inactive
ONS [9]
  Activity: inactive

## C=CCc1cc(OC)c(OC)c(OC)c1
ONS [10]
  Activity: Active
ONS [1]
  Activity: Active
ONS [3]
  Activity: Active
ONS [4]
  Activity: Active
ONS [11]
  Activity: Active
ONS [6]
  Activity: Active
ONS [7]
  Activity: Active
ONS [12]
  Activity: Active
ONS [9]
  Activity: Active

## O=C(O)/C=C/c1ccc(O)cc1
ONS [1]
  Activity: inactive
ONS [2]
  Activity: inactive
ONS [3]
  Activity: inactive
ONS [4]
  Activity: inactive
ONS [5]
  Activity: inactive
ONS [6]
  Activity: inactive
ONS [7]
  Activity: inactive
ONS [8]
  Activity: inactive
ONS [9]
  Activity: inactive

## COc1cc([C@H]2OC[C@H]3[C@@H]2CO[C@@H]3c2ccc3c(c2)OCO3)ccc1O
ONS [13]
  Activity: Active
ONS [2]
  Activity: Active
ONS [14]
  Activity: Active
ONS [15]
  Activity: Active
ONS [5]
  Activity: Active
ONS [8]
  Activity: Active

## C=CCc1cc(OC)c(O)c(OC)c1
ONS [10]
  Activity: Active
ONS [1]
  Activity: Active
ONS [3]
  Activity: Active
ONS [4]
  Activity: Active
ONS [11]
  Activity: Active
ONS [6]
  Activity: Active
ONS [7]
  Activity: Active
ONS [12]
  Activity: Active
ONS [9]
  Activity: Active

## c1cc2c(cc1[C@H]1OC[C@H]3[C@@H]1CO[C@H]3c1ccc3c(c1)OCO3)OCO2
ONS [10]
  Activity: Active
ONS [1]
  Activity: Active
ONS [3]
  Activity: Active
ONS [4]
  Activity: Active
ONS [11]
  Activity: Active
ONS [6]
  Activity: Active
ONS [7]
  Activity: Active
ONS [12]
  Activity: Active
ONS [9]
  Activity: Active

## CCC(=O)c1cc2c(cc1O)OCO2
ONS [1]
  Activity: inactive
ONS [2]
  Activity: inactive
ONS [3]
  Activity: inactive
ONS [4]
  Activity: inactive
ONS [5]
  Activity: inactive
ONS [6]
  Activity: inactive
ONS [7]
  Activity: inactive
ONS [8]
  Activity: inactive
ONS [9]
  Activity: inactive

## C=CCc1cc2c(cc1OC)OCO2
ONS [10]
  Activity: Active
ONS [1]
  Activity: Active
ONS [3]
  Activity: Active
ONS [4]
  Activity: Active
ONS [11]
  Activity: Active
ONS [6]
  Activity: Active
ONS [7]
  Activity: Active
ONS [12]
  Activity: Active
ONS [9]
  Activity: Active
